Test results reported in patent US20210139435A1, “PROSTAGLANDIN ANALOGS AND USES THEREOF” (Lifex Biolabs, Inc., priority 2019, published 2021).

What follows are compounds tested against T1, mouse Nurr1 full-length (Mus musculus, UniProt Q06219) (assay: Luciferase reporter gene assay for Nurr1 transcriptional activity in SK-N-BE2C cells). Conditions: relative activity over control (luminescence value; 1.0).
T1 construct: pcDNA3.1 Myc/His mouse Nurr1 full-length construct; expressed in transfected cells; host or cells: SK-N-BE2C
Format: cell-based
Procedure: To investigate whether the PG analogs of the present invention activate Nurr1 function, the inventors of the present invention employed an reporter gene assay and examined the transcriptional activation as described in Kim, C.-H. et al., Proceedings of the National Academy of Sciences 112, 8756-8761, doi:10.1073/pnas.1509742112 (2015).
The gene assay was performed by Luciferase assay as described below:
[Protocol for Luciferase Assay to Determine Nurr1 Transcriptional Activity] • 1. SK-N-BE2C cells were maintained in HyClone™ DMEM High Glucose (Cat. No.: SH30022.01) with 10% (v/v) fetal bovine serum (FBS), 100 units/ml penicillin and 100 μg/ml streptomycin. • 2. Seed 1.5×10^5 SK-N-BE2C cells/well into a 24-well plate and incubate at 37° C. with 5% CO2 for 24 hours. • 3. After 24 hours, transfect cells with pcDNA3.1 Myc/His mouse Nurr1 full-length construct, firefly luciferase reporter vector (pGL-3 basic from Promega, Cat. No.:E1751; with appropriate response element cloned in) and Renilla luciferase control vector (pRL-null from Promega, Cat. No.:E2271) in the ratio of 8:1:1 (Nurr1: firefly: renilla) or 400 ng, 50 ng and 50 ng respectively, amounting to a total of 500 ng in the 50 μl transfection mix for 1 well. • 4. To make the transfection mix, first prepare the DNA with P3000 reagent by adding the appropriate amount of DNA with 1 μl P3000 reagent and top up with Opti-MEM® I Reduced-Serum Media (from ThermoFisher Scientific [Cat. No.: 31985070]) to 25 μl. Incubate for 5 minutes at room temperature. • 5. Make another mix consisting of 1 μl Lipofectamine 3000 reagent with 24 μl Opti-MEM® I Reduced-Serum Media per well. Add this Lipofectamine mix to the previous DNA-P3000 mix (after the previous 5 minute incubation) and incubate them for 15 minutes at room temperature. [P3000:Lipofectamine=1:1]. • 6. In the meantime, change the media in the sample wells with fresh DMEM media without antibiotics. • 7. After 15 minutes incubation, add the 50 μl transfection mix into each well and incubate the plate for 24 hours at 37° C. with 5% CO2. • 8. After 24 hours, change the media to normal DMEM media with antibiotics and add various doses of compounds into designated wells and incubate the plate for another 24 hours at 37° C. with 5% CO2. • 9. Following the 24-hour incubation period, luciferase assay can be conducted using Dual-Glo Luciferase® kit from Promega (Cat. No.: E2920). • 10. Lyse each tested wells for 15 minutes with 75 μl of passive lysis buffer provided in the Dual-Luciferase® kit from Promega (Cat. No.: E1910). [Alternatively, add 75 μl of PBS and 75 μl of Dual-Glo® Luciferase Reagent and incubate for 10 minutes at room temperature (cover the plate with foil to protect from light). Transfer the entire sample in each well to a Greiner CELLSTAR® 96-well white polystyrene plate then proceed to step 13]. • 11. After 15 minutes, transfer each lysed sample to a Greiner CELLSTAR® 96-well white polystyrene plate (Cat. No.:655083). • 12. To each well of lysed cells, add 75 μl of Dual-Glo® Luciferase Reagent and incubate for 10 minutes at room temperature (cover the plate with foil to protect from light). • 13. Set the measurement with a 10-second integrated measurement period. • 14. Add 75 μl of Dual-Glo® Stop & Glo® reagent into each well and incubate for 10 minutes before commencing with the same parameters as before to determine the RLU for the Renilla luciferase. • 15. The averaged reading for wells corresponding to non-transfected cells can be subtracted from each RLU reading and duplicate/triplicate readings can then be averaged. Normalization of the luminescence reading for each well can be carried out by dividing the firefly luciferase RLU with the corresponding Renilla luciferase RLU. Each drug-treated well can then be normalized against the averaged DMSO-treated well reading.

T1 sequence (Q06219 whole entry): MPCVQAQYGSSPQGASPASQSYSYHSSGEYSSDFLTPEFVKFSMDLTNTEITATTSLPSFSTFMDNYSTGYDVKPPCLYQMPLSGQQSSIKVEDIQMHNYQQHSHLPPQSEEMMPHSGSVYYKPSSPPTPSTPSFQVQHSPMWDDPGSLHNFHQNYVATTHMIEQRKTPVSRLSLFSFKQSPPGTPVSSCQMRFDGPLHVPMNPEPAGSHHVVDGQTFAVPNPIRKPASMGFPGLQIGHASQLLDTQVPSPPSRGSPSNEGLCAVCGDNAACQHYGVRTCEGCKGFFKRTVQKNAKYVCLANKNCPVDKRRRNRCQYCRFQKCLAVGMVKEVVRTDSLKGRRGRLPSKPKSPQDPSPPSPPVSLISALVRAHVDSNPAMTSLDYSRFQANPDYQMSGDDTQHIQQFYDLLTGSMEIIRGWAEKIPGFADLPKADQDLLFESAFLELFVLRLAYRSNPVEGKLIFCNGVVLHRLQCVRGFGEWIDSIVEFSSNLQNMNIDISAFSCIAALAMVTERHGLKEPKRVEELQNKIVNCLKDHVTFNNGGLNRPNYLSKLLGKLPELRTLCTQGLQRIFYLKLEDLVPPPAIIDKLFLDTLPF

Row | SMILES | Fold activity (1 uM)
1 | CCCCC[C@H](O)/C=C/[C@H]1[C@H](O)CC(=O)[C@H]1C/C=C\CCCC(=O)OC(C)C [Compound 76, 8-iso Prostaglandin E2 isopropyl ester] | A (above 2.0 (high activity))
2 | CCCCC[C@H](O)C/C=C1/C(=O)C[C@H](O)[C@@H]1C/C=C\CCCC(=O)O [Compound 41, D12-Prostaglandin D2] | C (below 1.0 (low activity))
3 | CCCCCC(=O)CC[C@H]1[C@H](O)CC(=O)[C@@H]1C/C=C\CCCC(=O)O [Compound 29, 13,14-dihydro-15-keto Prostaglandin E2] | B (1.1~2.0 (moderate))
4 | CCCCC[C@H](O)/C=C/[C@H]1[C@H](O)CC(=O)[C@@H]1CCCCCCC(=O)NCCO [Compound 88, Alprostadil Ethanolamide] | B (1.1~2.0 (moderate))
5 | CNC(=O)CCC/C=C\C[C@@H]1[C@@H](/C=C/[C@@H](O)CCc2ccccc2)[C@H](O)C[C@@H]1O [Compound 80, 17-phenyl trinor PGF2a methyl amide] | C (below 1.0 (low activity))
6 | CCCCC(C)(C)[C@H](O)/C=C/[C@H]1[C@H](O)CC(=O)[C@@H]1CC(=O)CCCCC(=O)O [Compound 84, 16,16-dimethyl-6-keto Prostaglandin E1] | B (1.1~2.0 (moderate))
7 | CCCCC(C)(O)C/C=C/[C@H]1[C@H](O)CC(=O)[C@@H]1CCCCCCC(=O)OC (stereo partly shown) [Compound 75, Misoprostol] | A (above 2.0 (high activity))
8 | CCCCC[C@H](O)/C=C/[C@H]1[C@H](O)CC(=O)[C@@H]1C/C=C\CCCC(=O)NC(CO)CO [Compound 40, Prostaglandin E2 serinol amide] | C (below 1.0 (low activity))
9 | CCCCC[C@H](O)/C=C/[C@H]1[C@H](O)CC(=O)[C@H]1CCCCCCC(=O)O [Compound 50, 8-iso Prostaglandin E1] | A (above 2.0 (high activity))
10 | O=C(O)CCC/C=C\C[C@H]1[C@@H](O)CC(=O)[C@@H]1/C=C/[C@@H](O)COc1cccc(C(F)(F)F)c1 [Compound 23, 11-keto Fluprostenol] | B (1.1~2.0 (moderate))
11 | CCCCC(C)(O)C/C=C/[C@H]1[C@H](O)CC(=O)[C@@H]1CCCCCCC(=O)Oc1ccc(NC(=O)c2ccccc2)cc1 (stereo partly drawn) [Compound 2, 4-Benzamidophenyl-7-((1R,2R,3R)-3-hydroxy-2-((E)-4-hydroxy-4-methyloct-1-en-1-yl)-5-oxocyclopentyl)heptanoate] | A (above 2.0 (high activity))
12 | CC(C)OC(=O)CCC/C=C\C[C@@H]1[C@@H](CC[C@@H](O)CCc2ccccc2)[C@H](O)C[C@@H]1O [Compound 91, Latanoprost] | B (1.1~2.0 (moderate))
13 | CCCCC[C@@H](O)/C=C/[C@H]1[C@H](C/C=C\CCCC(=O)O)C(=O)C[C@@H]1O [Compound 47, ent-Prostaglandin E2] | B (1.1~2.0 (moderate))
14 | CCCCC[C@@H](O)/C=C/[C@H]1[C@H](O)CC(=O)[C@@H]1C/C=C\CCCC(=O)O [Compound 37, 15(R)-Prostaglandin E2] | B (1.1~2.0 (moderate))
15 | CCCCC[C@](C)(O)/C=C/[C@H]1C(=O)C[C@H](O)[C@@H]1C/C=C\CCCC(=O)O [Compound 57, 15(S)-15-methyl Prostaglandin D2] | B (1.1~2.0 (moderate))
16 | CCCCC[C@H](O)/C=C/[C@H]1[C@H](O)CC(=O)[C@@H]1CCCCCCC(=O)Nc1cccc(C(=O)Nc2ccccc2)c1 [Compound 6, 3-(7-((1R,2R,3R)-3-hydroxy-2-((S,E)-3-hydroxyoct-1-enyl)-5-oxocyclopentyl)heptanamido)-N-phenylbenzamide] | B (1.1~2.0 (moderate))

Row | SMILES | Fold activity (1 uM)
17 | CCCC1([C@H](O)C/C=C/[C@H]2[C@H](O)CC(=O)[C@@H]2C/C=C\CCCC(=O)O)CCC1 [Compound 43, CAY10408] | B (1.1~2.0 (moderate))
18 | CCCCCC(=O)/C=C/[C@H]1C(O)CC(=O)[C@H]1C/C=C\CCCC(=O)O (stereo partly shown) [Compound 82, 8-iso-15-keto Prostaglandin E2] | B (1.1~2.0 (moderate))
19 | CCCCC[C@H](O)/C=C/[C@H]1[C@H](O)CC(=O)[C@@H]1CCCCCCC(=O)Nc1ccc2nccnc2c1 [Compound 7, 7-((1R,2R,3R)-3-hydroxy-2-((S,E)-3-hydroxyoct-1-enyl)-5-oxocyclopentyl)-N-(quinoxalin-6-yl)heptanamide] | A (above 2.0 (high activity))
20 | CCCCC[C@](C)(O)/C=C/[C@@H]1[C@@H](C/C=C\CCCC(=O)O)[C@@H](O)C[C@H]1O [Compound 86, Carboprost] | C (below 1.0 (low activity))
21 | CCCCC[C@H](O)/C=C/[C@H]1[C@H](O)CC(=O)[C@@H]1C/C=C\CCCC(=O)Oc1ccc(NC(=O)c2ccccc2)cc1 [Compound 52, Prostaglandin E2 p-benzamidophenyl ester] | A (above 2.0 (high activity))
22 | CS(=O)(=O)NC(=O)CCC/C=C\C[C@H]1C(=O)C[C@@H](O)[C@@H]1/C=C/[C@@H](O)COc1ccccc1 [Compound 22, Sulprostone] | B (1.1~2.0 (moderate))
23 | CCCCC[C@H](O)/C=C/[C@H]1C(=O)C[C@H](O)[C@@H]1C/C=C\CCCC(=O)NCCO [Compound 72, Prostaglandin D2 Ethanolamide] | C (below 1.0 (low activity))
24 | CCCCC[C@H](O)/C=C/[C@H]1[C@H](O)CC(=O)[C@@H]1CCCCCCC(=O)OCc1ccccc1 [Compound 15, benzyl 7-((1R,2R,3R)-3-hydroxy-2-((S,E)-3-hydroxyoct-1-enyl)-5-oxocyclopentyl)heptanoate] | A (above 2.0 (high activity))
25 | CCCCC[C@H](O)/C=C/[C@H]1[C@H](O)CC(=O)[C@@H]1CC(=O)CCCCC(=O)O [Compound 42, 6-keto Prostaglandin E1] | A (above 2.0 (high activity))
26 | CCCCC[C@H](O)/C=C/[C@H]1[C@H](O)CC(=O)[C@@H]1CCCCCCC(=O)Oc1ccc(NC(=O)c2ccccc2)cc1 [Compound 1, 4-Benzamidophenyl-7-((1R,2R,3R)-3-hydroxy-2-((S,E)-3-hydroxyoct-1-enyl)-5-oxocyclopentyl)heptanoate] | A (above 2.0 (high activity))
27 | CCCCC(C)(C)[C@H](O)/C=C/[C@H]1[C@H](O)CC(=O)[C@@H]1C/C=C\CCCC(=O)Oc1ccc(NC(=O)c2ccc(NC(C)=O)cc2)cc1 [Compound 77, 16,16-dimethyl Prostaglandin E2 p-(p-acetamidobenzamido) phenyl ester] | A (above 2.0 (high activity))
28 | CCCCC[C@H](O)/C=C/[C@H]1[C@H](O)CC(=O)[C@@H]1CCCCCCC(=O)Oc1ccc(NC(=O)c2cc(F)cc(F)c2)cc1 [Compound 13, 4-(3,5-difluorobenzamido)phenyl 7-((1R,2R,3R)-3-hydroxy-2-((S,E)-3-hydroxyoct-1-enyl)-5-oxocyclopentyl)heptanoate] | A (above 2.0 (high activity))
29 | CCCCC[C@H](O)/C=C/[C@H]1C(=O)C[C@H](O)[C@@H]1C/C=C\CCCC(=O)OC [Compound 55, Prostaglandin D2 methyl ester] | C (below 1.0 (low activity))
30 | CCCCC[C@H](O)/C=C/[C@H]1[C@H](O)CC(=O)[C@@H]1C/C=C\CCCC(=O)NCCCCCNC(=O)CCCC[C@H]1SC[C@@H]2NC(=O)N[C@@H]21 [Compound 39, Prostaglandin E2-biotin] | B (1.1~2.0 (moderate))
31 | C[C@@H](O)CCC[C@H](O)/C=C/[C@H]1[C@H](O)CC(=O)[C@@H]1C/C=C\CCCC(=O)O [Compound 54, 19(R)-hydroxy Prostaglandin E2] | A (above 2.0 (high activity))
